Measurements taken from patent US20240018122A1, “PYRIDAZINYL AMINO DERIVATIVES AS ALK5 INHIBITORS” (CHIESI FARMACEUTICI S.P.A., priority 2020, published 2024).

Target: human ALK5 (Homo sapiens (Human), UniProt P36897)
Test: ADP-GLO Kinases assay, inhibitory activity on ALK5
Type: biochemical
Conditions: not given
Protocol: The enzymatic activity of compounds of the present invention was monitored measuring the formation of ADP using the ADP-GLO Kinases assay. Following the incubation of the purified enzyme, a substrate and ATP, the produced ADP was converted into ATP, which in turn was converted into light by Ultra-Glo Luciferase. The luminescent signal positively correlated with ADP amount and kinase activity. […] The assay was performed in 384-well format and was validated using a selection of reference compounds that was tested in 11 point concentration-response curve.

Chain of human ALK5 (P36897 80-503 limits assumed): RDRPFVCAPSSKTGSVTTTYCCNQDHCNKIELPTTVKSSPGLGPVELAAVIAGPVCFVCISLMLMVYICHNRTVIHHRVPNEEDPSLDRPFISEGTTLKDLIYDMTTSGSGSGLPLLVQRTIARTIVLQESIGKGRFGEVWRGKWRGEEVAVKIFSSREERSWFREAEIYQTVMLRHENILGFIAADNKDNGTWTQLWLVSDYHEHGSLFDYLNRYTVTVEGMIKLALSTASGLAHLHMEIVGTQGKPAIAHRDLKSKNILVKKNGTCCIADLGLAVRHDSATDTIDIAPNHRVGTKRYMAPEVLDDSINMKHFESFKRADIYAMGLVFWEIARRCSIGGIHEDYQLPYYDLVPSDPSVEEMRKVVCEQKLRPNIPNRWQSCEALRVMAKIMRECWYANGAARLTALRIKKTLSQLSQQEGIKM

Row | SMILES | IC50
1 | Cc1nnc(-c2cc(Cl)ccc2F)cc1Nc1ccnc2cc(OC(=O)N3C[C@H]4C[C@@H]3CN4C)ccc12 [Example 159, 4-{[6-(5-chloro-2-fluorophenyl)-3-methylpyridazin-4-yl]amino}quinolin-7-yl (1R,4R)-5-methyl-2,5-diazabicyclo[2.2.1]heptane-2-carboxylate] | < 1 nM

Same assay, conditions: purified recombinant human ALK5 2.6 nM, TGFβ1 peptide substrate, 25° C, 150 min incubation, ADP-Glo detection; read-out: ALK5 IC50

Row | SMILES | IC50
2 | CN(CCC(=O)Nc1cc(Nc2cnnc(-c3cc(Cl)ccc3F)c2)ccn1)C1COC1 [Example 18, N-(4-{[6-(5-Chloro-2-Fluorophenyl)Pyridazin-4-Yl]Amino}Pyridin-2-Yl)-3-[Methyl(Oxetan-3-Yl)Amino]Propanamide] | < 1 nM
3 | Cc1nnc(-c2cc(Cl)ccc2F)cc1Nc1ccnc(NC(=O)CCN2CCN(C)C(C(=O)O)C2)c1 (stereo not drawn) [Example 95, 4-{2-[(4-{[6-(5-chloro-2-fluorophenyl)-3-methylpyridazin-4-yl]amino}pyridin-2-yl)carbamoyl]ethyl}-1-methylpiperazine-2-carboxylic acid] | < 1 nM
4 | CC(=O)N1CCCN(CCOc2ccc3c(Nc4cnnc(-c5cc(Cl)ccc5F)c4)ccnc3c2)C1 [Example 56, 1-(3-{2-[(4-{[6-(5-Chloro-2-Fluorophenyl)Pyridazin-4-Yl]Amino}Quinolin-7-Yl)Oxy]Ethyl}-1,3-Diazinan-1-Yl)Ethan-1-One] | < 1 nM
5 | Cc1nnc(-c2cc(Cl)ccc2F)cc1Nc1ccnc(NC(=O)CCN2CCN(CCNS(C)(=O)=O)CC2)c1 [Example 136, N-(4-{[6-(5-Chloro-2-Fluorophenyl)-3-Methylpyridazin-4-Yl]Amino}Pyridin-2-Yl)-3-[4-(2-Methanesulfonamidoethyl)Piperazin-1-Yl]Propanamide] | < 1 nM
6 | O=C(CCCN1CCOCC1)Nc1cc(Nc2cnnc(-c3cc(Cl)ccc3F)c2)ccn1 [Example 8, N-(4-{[6-(5-Chloro-2-Fluorophenyl)Pyridazin-4-Yl]Amino}Pyridin-2-Yl)-4-(Morpholin-4-Yl)Butanamide] | < 1 nM
7 | Cc1nnc(-c2cc(Cl)ccc2F)cc1Nc1ccnc(NC(=O)CCCN2CCCN(C)CC2)c1 [Example 161, N-(4-{[6-(5-Chloro-2-Fluorophenyl)-3-Methylpyridazin-4-Yl]Amino}Pyridin-2-Yl)-4-(4-Methyl-1,4-Diazepan-1-Yl)Butanamide] | < 1 nM
8 | Cc1nnc(-c2cc(Cl)ccc2F)cc1Nc1ccnc2cc(OC(=O)N3CCN(CCC4CCN(C)CC4)CC3)ccc12 [Example 81, 4-{[6-(5-Chloro-2-Fluorophenyl)-3-Methylpyridazin-4-Yl]Amino}Quinolin-7-Yl 4-[2-(1-Methylpiperidin-4-Yl)Ethyl]Piperazine-1-Carboxylate] | < 1 nM
9 | CS(=O)(=O)CCN1CCN(CCC(=O)Nc2cc(Nc3cc(-c4cc(Cl)ccc4F)nnc3C(F)(F)F)ccn2)CC1 [Example 185] | < 1 nM
10 | O=C(Nc1cc(Nc2cnnc(-c3cc(Cl)ccc3F)c2)ccn1)C1CC1 [Example 7, N-(4-{[6-(5-Chloro-2-Fluorophenyl)Pyridazin-4-Yl]Amino}Pyridin-2-Yl)Cyclopropanecarboxamide] | < 1 nM
11 | Cc1nnc(-c2cc(Cl)ccc2F)cc1Nc1ccnc(NC(=O)C[N+]2([O-])CCOCC2)c1 [Example 123, 4-{[(4-{[6-(5-Chloro-2-Fluorophenyl)-3-Methylpyridazin-4-Yl]Amino}Pyridin-2-Yl)Carbamoyl]Methyl}Morpholin-4-Ium-4-Olate] | < 1 nM
12 | NCCN1CCN(CCOc2ccc3c(Nc4cnnc(-c5cc(Cl)ccc5F)c4)ccnc3c2)CC1 [Example 66, 7-{2-[4-(2-Aminoethyl)Piperazin-1-Yl]Ethoxy}-N-[6-(5-Chloro-2-Fluorophenyl)Pyridazin-4-Yl]Quinolin-4-Amine] | < 1 nM
13 | CN1CC[C@H](OC(=O)c2ccc3c(Nc4cnnc(-c5cc(Cl)ccc5F)c4)ccnc3c2)C1 [Example 58, (3S)-1-Methylpyrrolidin-3-Yl 4-{[6-(5-Chloro-2-Fluorophenyl)Pyridazin-4-Yl]Amino}Quinoline-7-Carboxylate] | 1 to 5 nM
14 | Cc1nnc(-c2cc(Cl)ccc2F)cc1Nc1ccnc(NC(=O)CCN2CCNC(CC(=O)O)C2)c1 (stereo not drawn) [Example 116, 2-(4-{2-[(4-{[6-(5-chloro-2-fluorophenyl)-3-methylpyridazin-4-yl]amino}pyridin-2-yl)carbamoyl]ethyl}piperazin-2-yl)acetic acid] | < 1 nM
15 | CN1CCN(C(=O)c2cc3c(Nc4cnnc(-c5cc(Cl)ccc5F)c4)ccnc3[nH]2)CC1 [Example 38, 6-(5-Chloro-2-Fluorophenyl)-N-[2-(4-Methylpiperazine-1-Carbonyl)-1H-Pyrrolo[2,3-13]Pyridin-4-Yl]Pyridazin-4-Amine] | 1 to 5 nM
16 | CN1CCC(CCOc2ccc3c(Nc4cnnc(-c5cc(Cl)ccc5F)c4)ccnc3c2)CC1 [Example 17, N-[6-(5-Chloro-2-Fluorophenyl)Pyridazin-4-Yl]-7-[2-(1-Methylpiperidin-4-Yl)Ethoxy]Quinolin-4-Amine] | < 1 nM
17 | CN1CCC(CCNC(=O)c2ccc3c(Nc4cnnc(-c5cc(Cl)ccc5F)c4)ccnc3c2)CC1 [Example 14, 4-{[6-(5-Chloro-2-Fluorophenyl)Pyridazin-4-Yl]Amino}-N-[2-(1-Methylpiperidin-4-Yl)Ethyl]Quinoline-7-Carboxamide] | < 1 nM
18 | Cc1nnc(-c2cc(Cl)ccc2F)cc1Nc1ccnc(NC(=O)CCCN2CCCNCC2)c1 [Example 158, N-(4-{[6-(5-Chloro-2-Fluorophenyl)-3-Methylpyridazin-4-Yl]Amino}Pyridin-2-Yl)-4-(1,4-Diazepan-1-Yl)Butanamide] | < 1 nM
19 | O=C(Oc1ccc2c(Nc3cnnc(-c4cc(Cl)ccc4F)c3)ccnc2c1)N1CC(N2CCCC2)C1 [Example 133, 4-{[6-(5-Chloro-2-Fluorophenyl)Pyridazin-4-Yl]Amino}Quinolin-7-Yl 3-(Pyrrolidin-1-Yl)Azetidine-1-Carboxylate] | < 1 nM
20 | CN1CCCN(CCC(=O)Nc2cc(Nc3cnnc(-c4cc(Cl)ccc4F)c3)ccn2)C1 [Example 33, N-(4-{[6-(5-Chloro-2-Fluorophenyl)Pyridazin-4-Yl]Amino}Pyridin-2-Yl)-3-(3-Methyl-1,3-Diazinan-1-Yl)Propanamide] | < 1 nM
21 | COC(=O)NCCN1CCN(CCC(=O)Nc2cc(Nc3cc(-c4cc(Cl)ccc4F)nnc3C)ccn2)CC1 [Example 82, Methyl N-[2-(4-{2-[(4-{[6-(5-Chloro-2-Fluorophenyl)-3-Methylpyridazin-4-Yl]Amino}Pyridin-2-Yl)Carbamoyl]Ethyl}Piperazin-1-Yl)Ethyl]Carbamate] | < 1 nM
22 | CN1CCN(CCC(=O)Nc2cc(Nc3cc(-c4cc(Cl)ccc4F)nnc3CO)ccn2)CC1 [Example 174, N-(4-{[6-(5-chloro-2-fluorophenyl)-3-(hydroxymethyl)pyridazin-4-yl]amino}pyridin-2-yl)-3-(4-methylpiperazin-1-yl)propanamide] | < 1 nM
23 | Cc1nnc(-c2cc(Cl)ccc2F)cc1Nc1ccnc(NC(=O)CCCN2CCN(C)CC2)c1 [Example 65, N-(4-{[6-(5-Chloro-2-Fluorophenyl)-3-Methylpyridazin-4-Yl]Amino}Pyridin-2-Yl)-4-(4-Methylpiperazin-1-Yl)Butanamide] | < 1 nM
24 | Cc1nnc(-c2cc(Cl)ccc2F)cc1Nc1ccnc(NC(=O)CCN2CCC(O)CC2)c1 [Example 140, N-(4-{[6-(5-Chloro-2-Fluorophenyl)-3-Methylpyridazin-4-Yl]Amino}Pyridin-2-Yl)-3-(4-Hydroxypiperidin-1-Yl)Propanamide] | < 1 nM
